Measurements from patent US20240391889A1, “ANTIMICROBIAL COMPOUNDS AND THE METHODS OF USE” (priority 2021, published 2024).
Converted amounts (≈) assume the structure as drawn. Read-outs that look alike come from different tables or passages of the source. Numbered stars: 1 amine (or outer) side, 2 acyl side, 3 side chain; on linkers, the order of the positions; unused ones are H or OH. Square brackets hold non-standard residues; d marks the D form. Peptide text beside a SMILES is read from it. * marks the point of attachment. N(1S-cyclohexylethyl)Gly = C[C@H](NCC(=O)O)C1CCCCC1; N(2-thienylmethyl)Gly = O=C(O)CNCc1cccs1; NCyclohexylmethylGly = O=C(O)CNCC1CCCCC1; N(tridecyl)Gly = CCCCCCCCCCCCCNCC(=O)O; X2 = O=C(CN(c1cccc2ccccc12)[*:1])[*:2]; N(4-MeOBn)Gly = COc1ccc(CNCC(=O)O)cc1; N(4-F-Bzl)Gly = O=C(O)CNCc1ccc(F)cc1; X1 = CC(c1ccccc1)N(CC(=O)[*:2])[*:1]; Gly(N-2-aminoethyl) = NCCNCC(=O)O; Myristoyl = CCCCCCCCCCCCCC(=O)*; NFurfurylGly = O=C(O)CNCc1ccco1; Gly(N(CH2)3NH2) = NCCCNCC(=O)O; Nphe = O=C(O)CNCc1ccccc1; NPrGly = CCCNCC(=O)O; Nlys = NCCCCNCC(=O)O

Key:
in vitro = assay type: cell-based; settings: human, HepG2 hepatocellular carcinoma cells
Method: (§1) The mammalian cell lines that were tested (HepG2, 3T3, and HaCat) were incubated with RMG9-11 for 72 hours and cell viability was determined via mitochondrial activity using an MTT reduction assay where viable cells reduce MTT to formazan. Toxicity is reported as the concentration of the peptoid that results in a 50% reduction in viable cells, termed toxicity dose 50% or TD50. […] SR is defined as the TD50 divided by MIC and provides a measure of the therapeutic window for a compound. Typically for most lead compounds that would continue through development and optimization, a SR of 10 is preferred while an SR of 100 is more desirable for a compound moving into preclinical animal model evaluation.
(§2) Hepatocellular carcinoma (HepG2), mouse fibroblast (3T3), and human keratinocyte (HaCat) cells were cultured in Dulbeco modified eagle media (DMEM) containing 10% fetal bovine serum (FBS) and 1% penicillin, streptomycin, and glutamine (PSG) at 37° C. and 5% CO2. Cells were collected and adjusted to […] to 4×10^5 cells/mL in phenol-red free DMEM and plated (100 μL) 96 well plates. 2-fold serial dilutions of 10× peptoid (11.1 μL) were added to each well in triplicate. Water (vehicle) was used as a negative control. Plates were incubated at 37° C. in 5% CO2 for 72 hours. Thiazolyl blue tetrazolium bromide (MTT) was added to each well (5 mg/mL; 20 μL) and incubated for 3 hours. Media was removed, DMSO (100 μL) was added, and plates were incubated at 37° C. for 10 minutes. Plates were read on a SPECTRAMAX M5 plate reader (Abs. 570 nm). The concentration of compound resulting in a 50% reduction in growth compared to control (toxicity dose 50%; TD50) was determined using GRAFIT. This procedure was repeated three times on separate days.

HepG2 liver cells = test: in vitro; assay type: cell-based
Method: as §1, §2

C. albicans = assay type: cell-based, Candida albicans; settings: 24 h
From the text: (§3) This screening led to the discovery of RMG9-11 (FIG. 2C). The minimum inhibitory concentration (MIC) of resynthesized RMG9-11 was initially determined against C. albicans, C. neoformans, and the ESKAPE bacteria via CSLI guidelines (CLSI. Methods for Dilution Antimicrobial Susceptibility Tests for Bacteria That Grow Aerobically, 11th Edition. Clinical and Laboratory Standards Institute (2018); CLSI. Reference method for broth dilution antifungal susceptibility testing of yeasts; approved standard-third edition; CLSI document M27-A3. Clinical and Laboratory Standards Institute (2008)). […] C. albicans clinical isolates include a reference strain (M1), fluconazole susceptible strains (M4 and M6), and fluconazole resistant strains (M2, M3, M5, and M7). ATCC 64124 is multidrug resistant C. albicans strain that is resistant to amphotericin B, fluconazole, caspofungin, and flucytosine. All MICs were performed under CSLI guidelines in triplicate on at least three different days.
(§4) The minimum inhibitory concentration (MIC) of peptoids against fungal pathogens C. albicans and C. neoformans was determined following CLSI guidelines (Reference method for broth dilution antifungal susceptibility testing of yeasts; approved standard-third edition; CLSI document M27-A3.” CLSI. 2008.). Colonies were transferred from a streaked YPD plate to 0.85% saline to reach an OD530 between 0.18 and 0.25. This inoculant was diluted 1:100 into RPMI-MOPS and then further diluted 1:20 into RPMI-MOPS. 198 μL of inoculant was seeded into each well of a 96 well black-walled plate. 2-fold serial dilutions of 100× peptoid solutions were prepared in water and 2 μL of peptoid were added to each well in triplicate. […] MIC was defined as the lowest concentration of compound preventing fungal growth. This assay was repeated 3 times on separate days with each compound.

C. neoformans = assay type: cell-based, Cryptococcus neoformans; settings: 72 h
From the text: as §3, §4

[1] = Percent acetonitrile at time of elution from RP-HPLC (hydrophobicity); assay type: physicochemical
Method: Round 1 of the iterative SAR explored two miscellaneous derivatives along with derivatives that explored substitutions in position 3 (R^2; FIG. 6). Structures were confirmed by ESI-MS and hydrophobicity was determined by the percent acetonitrile at time of elution during RP-HPLC purification and using MarvinSketch to calculate the distribution coefficient at pH 7.4 (Table 5). Only one derivative of position 1 (group T of Formula 1) was explored, substituting a 14-carbon fatty acid (myristic acid) tail in place of the tridecyl tail (911-M1). This was tested because this fatty acid was previously shown to improve activity with C. albicans while reducing toxicity (Green R M, Bicker R. L. Evaluation of peptoid mimics of short, lipophilic peptide antimicrobials. Int J Antimicrob Agents. 2020; 56(2):106048. doi:10.1016/j.ijantimicag.2020.106048). The second miscellaneous derivative tested substituting the propyl group (Nnva) in position 2 (R^1) with a cationic group in an effort to reduce toxicity without effecting antifungal activity (911-M2). […]

Row | SMILES | MIC C. albicans (C. albicans) [µg/mL] | MIC C. neoformans (C. neoformans) [µg/mL] | % ACN [1] [%] | MIC C. neoformans (C. neoformans; listed as 911-10) | CC50 at 72 h (in vitro) [µg/mL] | HepG2 TD50 (HepG2 liver cells) [µg/mL] | cytotoxicity compared to RMG9-11 (HepG2 liver cells) | toxicity compared to 911-M1 (HepG2 liver cells)
1 | CCCCCCCCCCCCCC(=O)NCC(=O)N(CCC)CC(=O)N(CC(=O)N(CCCCN)CC(=O)N(CC(=O)N(CC(=O)N(CCCN)CC(N)=O)Cc1ccccc1)Cc1ccco1)C(C)c1ccccc1 (stereo not drawn) [Compound 911-M1] (Myristoyl-G[NPrGly][X1][Nlys][NFurfurylGly][Nphe][Gly(N(CH2)3NH2)]-NH2) | 3.13 to 6.25 | 3.13 (≈ 2.92 µM) |  |  | 144 ± 22.6 (≈ 135 µM) | 144.5 ± 22.6 | decreased cytotoxicity | 
2 | CCCCCCCCCCCCCNCC(=O)N(CCN)CC(=O)N(CC(=O)N(CCCCN)CC(=O)N(CC(=O)N(CC(=O)N(CCCN)CC(N)=O)Cc1ccccc1)Cc1ccco1)C(C)c1ccccc1 (stereo not drawn) [Compound 911-M2] (H-[N(tridecyl)Gly][Gly(N-2-aminoethyl)][X1][Nlys][NFurfurylGly][Nphe][Gly(N(CH2)3NH2)]-NH2) | 6.25 to 12.5 | 3.13 (≈ 3 µM) |  |  | 177 ± 20.5 (≈ 170 µM) |  | dramatic decrease in cytotoxicity | 
3 | CCCCCCCCCCCCCNCC(=O)N(CCC)CC(=O)N(CC(=O)N(CCCCN)CC(=O)N(CC(=O)N(CC(=O)N(CCCN)CC(N)=O)Cc1ccccc1)Cc1ccco1)CC1CCCCC1 [Compound 911-M10] (H-[N(tridecyl)Gly][NPrGly][NCyclohexylmethylGly][Nlys][NFurfurylGly][Nphe][Gly(N(CH2)3NH2)]-NH2; N-terminus assumed) | 6.25 (≈ 6.04 µM) | 0.78 to 1.56 | 72.3 | sub-one | 97.8 ± 18.3 (≈ 94.5 µM) |  |  | 
4 | CCCCCCCCCCCCCC(=O)NCC(=O)N(CCC)CC(=O)N(CC(=O)N(CCCCN)CC(=O)N(CC(=O)N(CC(=O)N(CCCN)CC(N)=O)c1cccc2ccccc12)Cc1ccco1)C(C)c1ccccc1 (stereo not drawn) [Compound 911-M15] (Myristoyl-G[NPrGly][X1][Nlys][NFurfurylGly][X2][Gly(N(CH2)3NH2)]-NH2) | 6.25 (≈ 5.64 µM) | 3.13 to 6.25 |  |  | 122 ± 21.3 (≈ 111 µM) |  |  | 
5 | CCCCCCCCCCCCCC(=O)NCC(=O)N(CCC)CC(=O)N(CC(=O)N(CCCCN)CC(=O)N(CC(=O)N(CC(=O)N(CCCN)CC(N)=O)Cc1ccc(OC)cc1)Cc1ccco1)C(C)c1ccccc1 (stereo not drawn) [Compound 911-M16] (Myristoyl-G[NPrGly][X1][Nlys][NFurfurylGly][N(4-MeOBn)Gly][Gly(N(CH2)3NH2)]-NH2) | 6.25 (≈ 5.67 µM) | 3.13 to 6.25 |  |  | 136 ± 39.6 (≈ 123 µM) |  |  | 
6 | CCCCCCCCCCCCCC(=O)NCC(=O)N(CCC)CC(=O)N(CC(=O)N(CCCCN)CC(=O)N(CC(=O)N(CC(=O)N(CCCN)CC(N)=O)[C@@H](C)C1CCCCC1)Cc1ccco1)C(C)c1ccccc1 (stereo partly drawn) [Compound 911-M17] (Myristoyl-G[NPrGly][X1][Nlys][NFurfurylGly][N(1S-cyclohexylethyl)Gly][Gly(N(CH2)3NH2)]-NH2) | 6.25 (≈ 5.73 µM) | 3.13 to 6.25 |  |  | 81.6 ± 5.97 (≈ 74.8 µM) |  |  | markedly more toxic

Second part, led by results:

Row | MIC C. albicans (C. albicans) [µg/mL] | MIC C. neoformans (C. neoformans) [µg/mL] | % ACN [1] [%] | MIC C. neoformans (C. neoformans; listed as 911-10) | SMILES | CC50 at 72 h (in vitro) [µg/mL] | HepG2 TD50 (HepG2 liver cells) [µg/mL] | cytotoxicity compared to RMG9-11 (HepG2 liver cells) | toxicity compared to 911-M1 (HepG2 liver cells)
7 | 6.25 (≈ 5.89 µM) | 6.25 (≈ 5.89 µM) |  |  | CCCCCCCCCCCCCC(=O)NCC(=O)N(CCC)CC(=O)N(CC(=O)N(CCCCN)CC(=O)N(CC(=O)N(CC(=O)N(CCCN)CC(N)=O)Cc1ccco1)Cc1ccco1)C(C)c1ccccc1 (stereo not drawn) [Compound 911-M18] (Myristoyl-G[NPrGly][X1][Nlys][NFurfurylGly][NFurfurylGly][Gly(N(CH2)3NH2)]-NH2) | 152 ± 8.04 (≈ 143 µM) | 151.96 ± 8.04 |  | slightly though not significantly better
8 | 6.25 (≈ 5.74 µM) | 3.13 (≈ 2.87 µM) |  |  | CCCCCCCCCCCCCC(=O)NCC(=O)N(CCC)CC(=O)N(CC(=O)N(CCCCN)CC(=O)N(CC(=O)N(CC(=O)N(CCCN)CC(N)=O)Cc1ccc(F)cc1)Cc1ccco1)C(C)c1ccccc1 (stereo not drawn) [Compound 911-M19] (Myristoyl-G[NPrGly][X1][Nlys][NFurfurylGly][N(4-F-Bzl)Gly][Gly(N(CH2)3NH2)]-NH2) | 106 ± 34.8 (≈ 97.6 µM) |  |  | 
9 | 6.25 (≈ 5.8 µM) | 3.13 (≈ 2.9 µM) |  |  | CCCCCCCCCCCCCC(=O)NCC(=O)N(CCC)CC(=O)N(CC(=O)N(CCCCN)CC(=O)N(CC(=O)N(CC(=O)N(CCCN)CC(N)=O)CC1CCCCC1)Cc1ccco1)C(C)c1ccccc1 (stereo not drawn) [Compound 911-M20] (Myristoyl-G[NPrGly][X1][Nlys][NFurfurylGly][NCyclohexylmethylGly][Gly(N(CH2)3NH2)]-NH2) | 79.6 ± 5.12 (≈ 73.9 µM) |  |  | markedly more toxic
10 | 6.25 (≈ 5.8 µM) | 3.13 to 6.25 |  |  | CCCCCCCCCCCCCC(=O)NCC(=O)N(CCC)CC(=O)N(CC(=O)N(CCCCN)CC(=O)N(CC(=O)N(CC(=O)N(CCCN)CC(N)=O)Cc1cccs1)Cc1ccco1)C(C)c1ccccc1 (stereo not drawn) [Compound 911-M21] (Myristoyl-G[NPrGly][X1][Nlys][NFurfurylGly][N(2-thienylmethyl)Gly][Gly(N(CH2)3NH2)]-NH2) | 135 ± 52.1 (≈ 125 µM) |  |  | 
11 | 6.25 (≈ 5.76 µM) | 3.13 (≈ 2.88 µM) |  |  | CCCCCCCCCCCCCC(=O)NCC(=O)N(CCC)CC(=O)N(CC(=O)N(CCCCN)CC(=O)N(CC(=O)N(CC(=O)N(CCCN)CC(N)=O)C(C)c1ccccc1)Cc1ccco1)C(C)c1ccccc1 (stereo not drawn) [Compound 911-M22] (Myristoyl-G[NPrGly][X1][Nlys][NFurfurylGly][X1][Gly(N(CH2)3NH2)]-NH2) | 113 ± 41.9 (≈ 104 µM) |  |  | 
